Test results taken from ChEMBL document CHEMBL1201862, “PubChem BioAssay data set” (2004).
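Method: 48-hour compound exposure of cells in 96-well plates, five concentrations, linear interpolation of endpoints. GI50 marks 50% less growth.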 Active and inactive are the calls of the source. Cut-off read from the data, not from the text of the source: active = GI50 up to about 1.1 µM and inactive = higher.

What was measured:
Assay in all cases: inhibition of tumour cell growth, NCI panel, 48 h
786-0 = system: 786-0
NCI-H226 = system: NCI-H226
COLO 205 = system: COLO 205
HL-60 = system: HL-60
SNB-19 = system: SNB-19
SK-MEL-28 = system: SK-MEL-28
KM12 = system: KM12
NCI-H23 = system: NCI-H23
TK-10 = system: TK-10
A549 = system: A549
OVCAR-4 = system: OVCAR-4
MOLT-4 = system: MOLT-4
SR = system: SR
SW-620 = system: SW-620
SK-OV-3 = system: SK-OV-3
HT-29 = system: HT-29
SN12C = system: SN12C
HCC 2998 = system: HCC 2998
RPMI-8226 = system: RPMI-8226

Measured: GI50

CCCCc1c(N(C)C)c(OC(C)=O)c(-c2cn(C)c3ccccc23)oc1=O
inactive: 786-0 34.8 µM | NCI-H226 8.71 µM | COLO 205 19.1 µM | HL-60 17.7 µM | SNB-19 28.7 µM | SK-MEL-28 21.7 µM | KM12 14.2 µM | NCI-H23 22.5 µM | TK-10 40 µM | A549 24.3 µM | OVCAR-4 33.7 µM | MOLT-4 47.9 µM | SR > 100 µM | SW-620 23.6 µM | SK-OV-3 32.4 µM | HT-29 15.5 µM | SN12C 24.5 µM

COc1cc2c(cc1OC)C1C(O)C(OC)C=C3CC[N+](C)(C2)C31 (stereo not given)
inactive: HCC 2998 > 100 µM | 786-0 > 100 µM | NCI-H226 > 100 µM | COLO 205 > 100 µM | HL-60 > 100 µM | SNB-19 > 100 µM | SK-MEL-28 > 100 µM | KM12 > 100 µM | NCI-H23 > 100 µM | TK-10 > 100 µM | A549 > 100 µM | RPMI-8226 > 100 µM | OVCAR-4 > 100 µM | MOLT-4 > 100 µM | SW-620 > 100 µM | SK-OV-3 > 100 µM | HT-29 > 100 µM | SN12C > 100 µM

CCOC(=O)c1cc(=O)c2cccc3c2n1CCS3
inactive: 786-0 > 100 µM | NCI-H226 > 100 µM | COLO 205 > 100 µM | HL-60 > 100 µM | SNB-19 > 100 µM | SK-MEL-28 > 100 µM | KM12 > 100 µM | NCI-H23 > 100 µM | TK-10 > 100 µM | A549 > 100 µM | MOLT-4 > 100 µM | SW-620 > 100 µM | SK-OV-3 > 100 µM | HT-29 > 100 µM | SN12C > 100 µM

Cc1ccc(-[n+]2cc([O-])on2)cc1
inactive: 786-0 > 100 µM | NCI-H226 10.1 µM | HL-60 > 100 µM | SNB-19 > 100 µM | SK-MEL-28 > 100 µM | KM12 > 100 µM | NCI-H23 > 100 µM | TK-10 > 100 µM | A549 > 100 µM | RPMI-8226 > 100 µM | OVCAR-4 > 100 µM | MOLT-4 > 100 µM | SR > 100 µM | SW-620 > 100 µM | HT-29 > 100 µM | SN12C > 100 µM

Cc1ccc(S(=O)(=O)N2CCCSCCSCCCN(S(=O)(=O)c3ccc(C)cc3)CC2)cc1
inactive: HCC 2998 > 100 µM | 786-0 > 100 µM | NCI-H226 > 100 µM | COLO 205 > 100 µM | SNB-19 > 100 µM | SK-MEL-28 > 100 µM | KM12 > 100 µM | NCI-H23 > 100 µM | TK-10 > 100 µM | A549 > 100 µM | RPMI-8226 > 100 µM | OVCAR-4 > 100 µM | MOLT-4 > 100 µM | SW-620 > 100 µM | SK-OV-3 > 100 µM | HT-29 > 100 µM | SN12C > 100 µM

CC(=O)N/N=C1\NC(=O)C[C@H]2[C@@H]3CC=C4C[C@@H](OC(C)=O)CC[C@]4(C)[C@H]3CC[C@]12C
inactive: 786-0 16 µM | NCI-H226 23.8 µM | COLO 205 45.3 µM | HL-60 > 100 µM | SNB-19 17.4 µM | SK-MEL-28 13.4 µM | KM12 38.9 µM | NCI-H23 49.9 µM | TK-10 17.1 µM | A549 34.2 µM | RPMI-8226 24.3 µM | OVCAR-4 11.2 µM | MOLT-4 > 100 µM | SW-620 23.7 µM | SK-OV-3 21.1 µM | HT-29 31.4 µM | SN12C 29.6 µM

N#CC12C(=O)N3C(=NC(c4ccccc4)NC3c3ccccc3)C1(C#N)C(c1ccccc1)NC1=C2CCCC1 (stereo not given)
inactive: HCC 2998 > 100 µM | 786-0 > 100 µM | NCI-H226 > 100 µM | COLO 205 > 100 µM | HL-60 > 100 µM | SNB-19 > 100 µM | SK-MEL-28 > 100 µM | KM12 > 100 µM | NCI-H23 > 100 µM | TK-10 > 100 µM | A549 > 100 µM | RPMI-8226 > 100 µM | OVCAR-4 > 100 µM | MOLT-4 > 100 µM | SW-620 > 100 µM | SK-OV-3 > 100 µM | HT-29 > 100 µM | SN12C > 100 µM

Cc1cc(C)n(CN(CCCCO)Cn2nc(C)cc2C)n1
inactive: 786-0 14.8 µM | COLO 205 17.2 µM | HL-60 23.3 µM | SNB-19 57.1 µM | SK-MEL-28 17.7 µM | KM12 23 µM | NCI-H23 24.3 µM | TK-10 73.8 µM | A549 49.2 µM | RPMI-8226 3.21 µM | OVCAR-4 24.7 µM | MOLT-4 14.2 µM | SR 4.82 µM | SW-620 21.7 µM | SK-OV-3 > 100 µM | HT-29 17.9 µM | SN12C 26 µM

Cn1nc(S(N)(=O)=O)s/c1=N/S(=O)(=O)c1ccc(N)cc1
inactive: HCC 2998 > 100 µM | 786-0 > 100 µM | NCI-H226 > 100 µM | COLO 205 > 100 µM | SNB-19 > 100 µM | SK-MEL-28 > 100 µM | KM12 > 100 µM | NCI-H23 > 100 µM | TK-10 > 100 µM | A549 > 100 µM | RPMI-8226 > 100 µM | OVCAR-4 > 100 µM | MOLT-4 > 100 µM | SW-620 > 100 µM | SK-OV-3 > 100 µM | HT-29 > 100 µM

CN(C)S(=O)(=O)/N=C/c1cccc(/C=N/S(=O)(=O)N(C)C)c1
inactive: HCC 2998 > 100 µM | 786-0 > 100 µM | NCI-H226 > 100 µM | COLO 205 65.9 µM | HL-60 > 100 µM | SNB-19 > 100 µM | SK-MEL-28 > 100 µM | KM12 > 100 µM | NCI-H23 > 100 µM | TK-10 > 100 µM | A549 > 100 µM | RPMI-8226 63.1 µM | OVCAR-4 > 100 µM | MOLT-4 > 100 µM | SW-620 64 µM | SK-OV-3 > 100 µM | SN12C > 100 µM

COCO[C@@H]1C[C@H]2C(=O)Nc3ccccc3C(=O)N2C1
inactive: 786-0 > 100 µM | NCI-H226 3.91 µM | COLO 205 29.3 µM | SNB-19 77.4 µM | SK-MEL-28 > 100 µM | KM12 > 100 µM | NCI-H23 51.4 µM | TK-10 71.4 µM | A549 > 100 µM | OVCAR-4 > 100 µM | SW-620 50.7 µM | SK-OV-3 > 100 µM | HT-29 85.3 µM | SN12C 88.1 µM

Cc1nnc2n1N=C(c1cc(F)c(Cl)cc1Cl)/C(=C/c1ccc3c(c1)OCO3)S2
inactive: HCC 2998 48.4 µM | 786-0 47.4 µM | NCI-H226 > 100 µM | COLO 205 > 100 µM | HL-60 40.4 µM | SNB-19 > 100 µM | SK-MEL-28 > 100 µM | KM12 > 100 µM | NCI-H23 90.8 µM | TK-10 > 100 µM | A549 > 100 µM | RPMI-8226 43.6 µM | OVCAR-4 51.6 µM | MOLT-4 38.1 µM | SW-620 > 100 µM | SK-OV-3 > 100 µM | HT-29 36.1 µM | SN12C 53.7 µM

O=C(O)C(Cc1c[nH]cn1)N1C(=O)c2ccccc2C1=O (stereo not given)
inactive: 786-0 > 100 µM | NCI-H226 > 100 µM | COLO 205 > 100 µM | SNB-19 > 100 µM | SK-MEL-28 > 100 µM | KM12 > 100 µM | NCI-H23 > 100 µM | TK-10 > 100 µM | A549 > 100 µM | RPMI-8226 > 100 µM | OVCAR-4 > 100 µM | MOLT-4 > 100 µM | SR > 100 µM | SW-620 > 100 µM | HT-29 > 100 µM | SN12C > 100 µM

O=C(O)CN1CCN2CCCCCCCCN(CC1)CCN(CC(=O)O)CC2
inactive: 786-0 > 100 µM | NCI-H226 > 100 µM | COLO 205 > 100 µM | HL-60 5.08 µM | SNB-19 > 100 µM | SK-MEL-28 > 100 µM | KM12 75.2 µM | TK-10 > 100 µM | A549 > 100 µM | RPMI-8226 > 100 µM | OVCAR-4 > 100 µM | MOLT-4 > 100 µM | SW-620 > 100 µM | SK-OV-3 > 100 µM | HT-29 43.5 µM | SN12C > 100 µM

O=C1CCC2SC1CCC2=O
inactive: HCC 2998 > 100 µM | 786-0 > 100 µM | NCI-H226 > 100 µM | COLO 205 > 100 µM | HL-60 > 100 µM | SNB-19 > 100 µM | SK-MEL-28 > 100 µM | KM12 > 100 µM | NCI-H23 > 100 µM | TK-10 > 100 µM | A549 > 100 µM | OVCAR-4 > 100 µM | MOLT-4 > 100 µM | SW-620 > 100 µM | SK-OV-3 > 100 µM | HT-29 > 100 µM | SN12C > 100 µM

N#Cc1cc(-c2nc3ccc(F)cc3s2)ccc1N
inactive: 786-0 > 100 µM | NCI-H226 > 100 µM | COLO 205 28.9 µM | HL-60 > 100 µM | SNB-19 > 100 µM | KM12 > 100 µM | NCI-H23 > 100 µM | TK-10 > 100 µM | A549 > 100 µM | RPMI-8226 > 100 µM | OVCAR-4 > 100 µM | MOLT-4 > 100 µM | SW-620 > 100 µM | SK-OV-3 21.8 µM | HT-29 > 100 µM | SN12C > 100 µM
